The test system of assay [1] is CfVgRXR. As to the kind of experiment: Transactivation of reporter genes through switch 1.10 in 293 cells. It counts as cell-based, Choristoneura fumiferana. The conditions noted are these: switch 1.10 CfVgRXR, pIND(SP1)LacZ. The method, then:
(§1) This example was prepared in the same way as switch 1.9 except MmRXR (SEQ ID NO: 53) was deleted.
(§2) The same procedures described for CHO were followed for 293 cells except that the cells were plated in biocoated plates to avoid clumping.
(§3) Cells were harvested 24-48 hr after adding ligands. […] Twenty μl of lysate was assayed.

Assay [2] concerns CfVgRXR. As to the kind of experiment: Transactivation of reporter genes through switch 1.10 in 3T3 cells. The conditions noted are these: switch 1.10 CfVgRXR, pIND(SP1)LacZ. It counts as cell-based, Choristoneura fumiferana. The protocol: as §1
(§4) The cells were plated when they reached 50% confluency.
as §3
(In general: A reporter such as luciferase makes a cellular process visible.)

A further assay concerns the target T1, GAL4RXR + VP16DmEcR (Drosophila melanogaster, UniProt P34021).
T1 sequence (P34021 254-878): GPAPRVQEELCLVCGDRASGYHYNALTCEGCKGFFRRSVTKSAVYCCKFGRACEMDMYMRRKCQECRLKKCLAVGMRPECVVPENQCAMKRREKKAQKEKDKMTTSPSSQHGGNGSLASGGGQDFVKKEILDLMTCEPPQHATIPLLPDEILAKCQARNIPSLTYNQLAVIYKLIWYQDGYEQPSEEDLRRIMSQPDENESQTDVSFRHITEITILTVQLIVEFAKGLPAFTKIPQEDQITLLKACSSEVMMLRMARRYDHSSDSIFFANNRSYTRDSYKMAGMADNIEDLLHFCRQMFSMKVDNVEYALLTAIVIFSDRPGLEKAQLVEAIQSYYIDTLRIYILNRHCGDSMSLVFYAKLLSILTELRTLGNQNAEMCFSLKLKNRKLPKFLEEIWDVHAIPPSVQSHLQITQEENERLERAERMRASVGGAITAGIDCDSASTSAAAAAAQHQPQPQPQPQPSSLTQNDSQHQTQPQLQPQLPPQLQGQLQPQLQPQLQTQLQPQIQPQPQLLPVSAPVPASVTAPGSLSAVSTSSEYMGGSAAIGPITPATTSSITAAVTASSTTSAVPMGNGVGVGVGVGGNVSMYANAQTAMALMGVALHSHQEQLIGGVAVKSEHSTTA
T1 sequence (P28700 206-467 partner limits assumed): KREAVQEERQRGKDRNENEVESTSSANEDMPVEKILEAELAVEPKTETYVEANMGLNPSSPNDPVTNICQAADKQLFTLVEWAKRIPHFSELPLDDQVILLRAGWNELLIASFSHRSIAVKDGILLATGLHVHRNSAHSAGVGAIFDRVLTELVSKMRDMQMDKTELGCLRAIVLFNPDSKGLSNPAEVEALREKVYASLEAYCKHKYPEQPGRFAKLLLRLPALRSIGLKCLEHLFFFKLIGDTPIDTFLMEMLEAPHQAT
The experiment in a line: Transactivation of reporter genes through switch 1.4 in 293 cells. The format is cell-based. Details: expressed in transfected cells; host or cells: 293 cells (transient co-transfection). The conditions noted are these: switch 1.4 GAL4RXR + VP16DmEcR, pGAL4RELuc. The method, then: This construct was prepared in the same way as switch 1.3 except CfEcRCDEF was replaced with DmEcRCDEF (SEQ ID NO: 6).
as §2, §3

The test system of assay [3] is VP16CfEcR. As to the kind of experiment: Transactivation of reporter genes through switch 1.7 in CHO cells. To be noted: switch 1.7 VP16CfEcR, pEcRELuc. The format is cell-based, Choristoneura fumiferana. The method, then:
(§5) Six ecdysone response elements (“EcRE”; SEQ ID NO: 59) from the hsp27 gene were placed upstream of the promoter and a luciferase gene (SEQ ID NO: 57). This switch most probably uses endogenous RXR.
(§6) The cells were harvested and reporter activity was assayed.
as §3

Assay [4] deals with GAL4USP + VP16CfEcR. As to the kind of experiment: Transactivation of reporter genes through switch 1.5 in 293 cells. It counts as cell-based, Choristoneura fumiferana. The conditions noted are these: switch 1.5 GAL4USP + VP16CfEcR, pGAL4RELuc. The protocol: (§7) This construct was prepared in the same way as switch 1.3 except MmRXRDEF was replaced with CfUSPDEF (SEQ ID NO: 58).
as §2, §3

For the next assay, the system named is GAL4EcR + VP16USP. The experiment in a line: Transactivation of reporter genes through switch 1.2 in CV1 cells. It counts as cell-based, Choristoneura fumiferana. To be noted: switch 1.2 GAL4EcR + VP16USP, pGAL4RELuc. The method, then:
This construct was prepared in the same way as in switch 1.1 above except MmRXRDEF was replaced with the D, E and F domains from spruce budworm USP (“CfUSPDEF”; SEQ ID NO: 58). The constructs used in this example are similar to those disclosed in U.S. Pat. No. 5,880,333 except that Choristoneura fumiferana USP rather than Drosophila melanogaster USP was utilized.
(§8) The same procedures described for NIH3T3 cells were followed for CV1 cells
as §3

For assay [5], the system named is CfVgRXR. As to the kind of experiment: Transactivation of reporter genes through switch 1.10 in CV1 cells. It counts as cell-based, Choristoneura fumiferana. To be noted: switch 1.10 CfVgRXR, pIND(SP1)LacZ. The protocol: as §1, §8, §3
The next assay relates to GAL4CfEcRVP16. The experiment in a line: Transactivation of reporter genes through switch 1.6 in CV1 cells. The format is cell-based, Choristoneura fumiferana. The conditions noted are these: switch 1.6 GAL4CfEcRVP16, pGAL4RELuc. The protocol:
This construct was prepared so that both the GAL4 DNABD and the VP16AD were placed on the same molecule. GAL4DNABD (SEQ ID NO: 41) and VP16AD (SEQ ID NO: 45) were fused to CfEcRDEF (SEQ ID NO: 3) at N- and C-termini respectively.
as §8, §3

Assay [6] relates to GAL4USP + VP16CfEcR. The experiment in a line: Transactivation of reporter genes through switch 1.5 in 3T3 cells. The format is cell-based, Choristoneura fumiferana. The conditions noted are these: switch 1.5 GAL4USP + VP16CfEcR, pGAL4RELuc. The method, then: as §7, §4, §3
The test system of assay [7] is GAL4USP + VP16CfEcR. As to the kind of experiment: Transactivation of reporter genes through switch 1.5 in CHO cells. The format is cell-based, Choristoneura fumiferana. To be noted: switch 1.5 GAL4USP + VP16CfEcR, pGAL4RELuc. The protocol:
as §7, §6, §3

Assay [8] has as its system VP16CfEcR. The experiment in a line: Transactivation of reporter genes through switch 1.7 in 3T3 cells. The format is cell-based, Choristoneura fumiferana. The conditions noted are these: switch 1.7 VP16CfEcR, pEcRELuc. The method, then:
as §5, §4, §3

A further assay has as its system CfVgRXR + MmRXR. As to the kind of experiment: Transactivation of reporter genes through switch 1.9 in 293 cells. The format is cell-based, Choristoneura fumiferana. The conditions noted are these: switch 1.9 CfVgRXR + MmRXR, pIND(SP1)LacZ. The method, then: This example was prepared in the same way as switch 1.8 except DinEcR was replaced with a truncated CfEcR comprising a partial A/B domain and the complete CDEF domains [SEQ ID NO: 62 (polynucleotide) and SEQ ID NO: 63 (polypeptide)].
as §2, §3

In assay [9] the test system is GAL4USP + VP16CfEcR. As to the kind of experiment: Transactivation of reporter genes through switch 1.5 in CV1 cells. It counts as cell-based, Choristoneura fumiferana. To be noted: switch 1.5 GAL4USP + VP16CfEcR, pGAL4RELuc. The protocol:
as §7, §8, §3

Take `CCc1c(OC)cccc1C(=O)NN(C(=O)c1cc(C)cc(C)c1)C(C)(C)C` [N-(2-ethyl-3-methoxybenzoyl)-N′-(3,5-dimethylbenzoyl)-N′-tert-butylhydrazine]: the “Mean Fold Activation Through N-(2-ethyl-3-methoxybenzoyl)-N′-(3,5-dimethylbenzoyl)-N′-t-butylhydrazine” value in the assay on CfVgRXR [1] turned out to be 3 fold; in the assay with CfVgRXR [2] it was 2 fold; at GAL4RXR + VP16DmEcR, 3 fold; in the assay with GAL4USP + VP16CfEcR [4] it was 2 fold; with GAL4EcR + VP16USP it was 2 fold; in the assay on CfVgRXR [5], 1 fold. Moreover, the “Mean Fold Activation Through N-(2-ethyl-3-methoxybenzoyl)-N′-(3,5-dimethylbenzoyl)-N′-t-butylhydrazine” value in the assay on GAL4CfEcRVP16 was determined as 6 fold; with GAL4USP + VP16CfEcR [6], 3 fold; in the assay on VP16CfEcR [8], 1 fold; in the assay on CfVgRXR + MmRXR it was 12 fold; in the assay with GAL4USP + VP16CfEcR [9], 3 fold. Moreover, the “Mean Fold Activation with 50 μM N-(2-ethyl-3-methoxybenzoyl)-N′-(3,5-dimethylbenzoyl)-N′-t-butylhydrazine” value was determined as 36 fold in the assay with VP16CfEcR [3] and 2 fold with GAL4USP + VP16CfEcR [7].

Values taken from patent US8822754B2, “Ecdysone receptor-based inducible gene expression system” (Intrexon Corporation, priority 2000, dated 2014).
